Results taken from patent publication EP4568957B1, “SUBSTITUTED PHENYL OXOOXAZOLYL PIPERIDINE DIONE COMPOUNDS” (Bristol-Myers Squibb Company, priority 2023, dated 2025).

Key:
Format in all cases: cell-based
IKZF4 Eos [1] = target: T1, IKZF4 Eos (Homo sapiens, UniProt Q96SW2+Q9H2S9); test: Human Regulatory T Cell Degradation Assay; conditions: human regulatory T cells, 20 hours; for DC50: vs DMSO alone
T1 construct: endogenous in cells; host or cells: primary human CD4+CD127lowCD25+ Treg cells from healthy leukopaks

IKZF1 Ikaros = IKZF1 Ikaros (Homo sapiens, UniProt Q13422+Q96SW2); test: Human Regulatory T Cell Degradation Assay; set-up: Foxp3-BV421, HELIOS-PE-Cy7, EOS-PE, IKAROS-PECF594, AIOLOS-AF647; endogenous in cells; host or cells: human PBMC from healthy donors (CD8+ T cells gated by flow cytometry); conditions: human regulatory T cells, 20 hours; for DC50: vs DMSO alone
IKZF2 Helios = IKZF2 Helios (Homo sapiens, UniProt Q96SW2+Q9UKS7); test: Human Regulatory T Cell Reprogramming Assay; set-up: endogenous in cells; host or cells: primary human CD4+CD127lowCD25+ Treg cells from healthy leukopaks; conditions: CD4+CD127lowCD25+ Treg cells; for IKZF2 Helios max % deg. observed: 12-13 days with compound; for DC50: 12-13 days, vs DMSO alone
Description: (§1) Human CD4^+ T cells were isolated from fresh healthy leukopaks (Stemcell Technologies) using the RosetteSep Human CD4^+ T cell enrichment cocktail (Stemcell Technologies) and Ficoll density gradient centrifugation. Leukopaks were diluted with an equal volume of phosphate-buffered saline (PBS [Gibco]) supplemented with 2% fetal bovine serum (FBS, VWR Lifescience) and incubated with RosetteSep Human CD4^+ T cell enrichment cocktail for 20 minutes before layering on Ficoll-Paque Plus solution (GE Health Care). The cell-rich interface layer was harvested and washed twice with PBS supplemented with 2% FBS. Regulatory T cells were then isolated manually using the EasySep Human CD4^+CD127^lowCD25^+ Regulatory T cell isolation kit (Stemcell Technologies) according to the manufacturer's instructions. Cells were rested overnight in Roswell Park Memorial Institute (RPMI) 1640 media (Gibco) supplemented with 10% FBS, Pen/Strep (Gibco), MEM-NEAA (Gibco), and sodium pyruvate (Gibco) in a humidified incubator (37 °C, 5% CO2). Cells were then stained for CD4 (clone: RPA-T4, Biolegend), CD25 (clone: 2A3, BD Biosciences), and CD127 (clone: hIL-7R-M21, BD Biosciences). CD4^+CD127^lowCD25^+ cells were sorted on a BD FACS Aria Fusion sorter to a purity of 95%) or greater. Sorted cells were immediately used or cryopreserved for downstream assays.
(§2) Fresh or cryopreserved FACS-sorted CD4^+CD127^lowCD25^+ Treg cells were cultured at 25,000-50,000 cells/well of 96-well round bottom plates in RPMI 1640 media (Gibco) supplemented with 10% FBS, Pen/Strep (Gibco), MEM-NEAA (Gibco), and sodium pyruvate (Gibco). Cells were stimulated with Treg Xpander beads (Thermo Fisher) at cells-to-beads ratio of 1:4 in the presence of 500 U/mL recombinant human IL-2 (Proleukin). Compounds were added at titrated doses and cells were incubated at 37 °C, 5% CO2 for 12-13 days. Recombinant human IL-2 and compound were replenished every 2-3 days during the entire culture duration. On day 12 or 13, cells were restimulated with phorbol 12-myristate 13-acetate (PMA,) and ionomycin in the presence of the protein transport inhibitors brefeldin A and monensin (eBioscience Cell Stimulation Cocktail plus protein transport inhibitors, 500x, Catalog number 00-4975-93) before proceeding with flow cytometry staining and analysis.
(§3) For flow cytometry staining, cells were washed twice with flow cytometry staining buffer (Thermo Fisher) and incubated in Human Tru-stain Fc block (Biolegend) for 10 minutes before adding eFluor780 viability dye (Thermo Fisher) and surface marker antibody cocktail for 30 minutes at 4 °C. Cells were then fixed and permeabilized by incubation with FoxP3 transcription factor staining buffer (Thermo Fisher) for 30 minutes at 4 °C as per the kit manufacturer's instructions. Cells were washed twice with the Perm/Wash buffer supplied in the kit as per the manufacturer's instructions and incubated overnight at 4 °C with an intracellular antibody cocktail comprised of antibodies specific for the transcription factors shown in Table C. Cells were washed twice with Perm/Wash buffer and resuspended in flow cytometry staining buffer (Thermo Fisher) prior to acquisition. Sample acquisition and analysis was performed using a BD LSRFortessa (BD Biosciences) flow cytometer. Single stain controls for each fluorochrome were prepared using UltraComp eBead Compensation Beads (Thermo Fisher). Data were analyzed using FlowJo version 10 and GraphPad Prism Software. TABLE C

IKZF4 Eos [2] = target: T1, IKZF4 Eos; test: Human Regulatory T Cell Reprogramming Assay; conditions: for DC50: 12-13 days, vs DMSO alone; for IKZF4*** Eos max % or deg. observed: Table E summary, Human Regulatory T Cell Reprogramming Assay (C-1)
Description: as §1, §2, §3

IKZF3 Aiolos = IKZF3 Aiolos (Homo sapiens, UniProt Q96SW2+Q9UKT9); test: Human Regulatory T Cell Degradation Assay; set-up: Foxp3-BV421, HELIOS-PE-Cy7, EOS-PE, IKAROS-PECF594, AIOLOS-AF647; endogenous in cells; host or cells: human PBMC from healthy donors (CD8+ T cells gated by flow cytometry); conditions: human regulatory T cells, 20 hours; for DC50: vs DMSO alone
Chain of IKZF3 Aiolos (Q9UKT9 whole entry): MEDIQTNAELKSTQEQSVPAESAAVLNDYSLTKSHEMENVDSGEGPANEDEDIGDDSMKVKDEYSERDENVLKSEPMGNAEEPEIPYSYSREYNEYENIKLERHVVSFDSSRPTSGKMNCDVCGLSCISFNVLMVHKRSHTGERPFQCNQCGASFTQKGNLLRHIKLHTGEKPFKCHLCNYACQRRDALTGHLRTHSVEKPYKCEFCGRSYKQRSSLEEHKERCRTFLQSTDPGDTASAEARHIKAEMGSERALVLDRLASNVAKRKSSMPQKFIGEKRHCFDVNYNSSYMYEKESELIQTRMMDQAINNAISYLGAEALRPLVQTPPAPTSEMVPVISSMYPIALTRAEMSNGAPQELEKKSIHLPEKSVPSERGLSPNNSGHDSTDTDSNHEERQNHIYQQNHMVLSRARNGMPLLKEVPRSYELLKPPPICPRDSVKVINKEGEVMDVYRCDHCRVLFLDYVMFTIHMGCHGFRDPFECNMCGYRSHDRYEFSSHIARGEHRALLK
Chain of IKZF3 Aiolos (Q96SW2 whole entry): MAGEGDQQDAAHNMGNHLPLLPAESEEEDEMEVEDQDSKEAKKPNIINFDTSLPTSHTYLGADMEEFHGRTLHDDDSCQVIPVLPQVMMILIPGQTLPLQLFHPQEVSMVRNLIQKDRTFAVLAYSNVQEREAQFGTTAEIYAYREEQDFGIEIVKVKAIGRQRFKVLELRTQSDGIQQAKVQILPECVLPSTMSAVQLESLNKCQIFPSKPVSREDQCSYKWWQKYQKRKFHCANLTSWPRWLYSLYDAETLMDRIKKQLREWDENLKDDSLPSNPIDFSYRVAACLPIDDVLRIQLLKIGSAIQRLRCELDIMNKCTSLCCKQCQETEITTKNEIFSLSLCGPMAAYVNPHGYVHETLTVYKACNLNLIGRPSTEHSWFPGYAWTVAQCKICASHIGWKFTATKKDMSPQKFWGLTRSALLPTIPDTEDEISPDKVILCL
Chain of IKZF3 Aiolos (Q16531 whole entry partner): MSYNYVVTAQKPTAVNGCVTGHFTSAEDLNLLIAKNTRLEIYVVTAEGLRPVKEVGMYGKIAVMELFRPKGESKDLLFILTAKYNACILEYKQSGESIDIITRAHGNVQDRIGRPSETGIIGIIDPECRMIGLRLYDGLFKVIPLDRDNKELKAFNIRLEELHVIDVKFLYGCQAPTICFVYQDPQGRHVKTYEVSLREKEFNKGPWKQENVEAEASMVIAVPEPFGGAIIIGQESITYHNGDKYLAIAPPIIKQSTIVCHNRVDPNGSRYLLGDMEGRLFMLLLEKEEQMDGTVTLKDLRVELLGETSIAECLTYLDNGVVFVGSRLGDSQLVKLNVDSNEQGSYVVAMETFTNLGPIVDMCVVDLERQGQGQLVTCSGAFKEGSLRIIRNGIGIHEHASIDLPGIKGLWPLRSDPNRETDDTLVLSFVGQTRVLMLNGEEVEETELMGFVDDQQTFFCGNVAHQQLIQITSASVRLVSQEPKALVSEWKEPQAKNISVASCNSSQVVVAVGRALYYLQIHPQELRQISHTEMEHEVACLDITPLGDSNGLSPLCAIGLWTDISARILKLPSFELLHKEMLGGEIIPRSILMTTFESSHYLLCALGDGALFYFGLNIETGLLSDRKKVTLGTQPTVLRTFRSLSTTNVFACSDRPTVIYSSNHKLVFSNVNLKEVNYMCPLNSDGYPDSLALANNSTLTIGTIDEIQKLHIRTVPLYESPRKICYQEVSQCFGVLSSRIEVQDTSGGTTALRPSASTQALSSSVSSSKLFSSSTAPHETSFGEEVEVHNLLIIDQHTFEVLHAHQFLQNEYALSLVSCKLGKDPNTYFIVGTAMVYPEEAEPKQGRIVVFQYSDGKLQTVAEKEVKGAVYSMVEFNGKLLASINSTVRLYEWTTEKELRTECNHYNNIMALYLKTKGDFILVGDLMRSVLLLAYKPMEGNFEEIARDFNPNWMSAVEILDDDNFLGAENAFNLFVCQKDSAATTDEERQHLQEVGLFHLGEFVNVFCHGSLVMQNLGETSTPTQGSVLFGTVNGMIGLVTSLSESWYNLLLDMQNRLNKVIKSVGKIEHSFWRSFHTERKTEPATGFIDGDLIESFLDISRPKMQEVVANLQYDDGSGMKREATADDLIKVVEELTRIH

Chain of IKZF2 Helios (Q9UKS7 whole entry): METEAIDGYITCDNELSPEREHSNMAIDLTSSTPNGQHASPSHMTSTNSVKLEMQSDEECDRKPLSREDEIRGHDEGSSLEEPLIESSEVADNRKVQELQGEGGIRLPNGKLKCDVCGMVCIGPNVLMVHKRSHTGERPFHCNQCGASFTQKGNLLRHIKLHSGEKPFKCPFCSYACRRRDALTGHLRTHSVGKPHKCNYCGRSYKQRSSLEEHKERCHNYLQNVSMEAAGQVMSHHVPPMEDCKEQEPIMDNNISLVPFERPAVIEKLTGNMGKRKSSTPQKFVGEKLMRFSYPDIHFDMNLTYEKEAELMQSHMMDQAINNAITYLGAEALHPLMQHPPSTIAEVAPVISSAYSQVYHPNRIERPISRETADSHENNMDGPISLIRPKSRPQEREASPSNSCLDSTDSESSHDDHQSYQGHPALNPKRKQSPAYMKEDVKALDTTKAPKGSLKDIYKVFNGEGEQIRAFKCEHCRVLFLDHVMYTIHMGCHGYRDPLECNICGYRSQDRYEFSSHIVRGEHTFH
Chain of IKZF2 Helios (Q96SW2 whole entry): as the sequence (Q96SW2 whole entry) above
Chain of IKZF2 Helios (Q16531 whole entry partner): as the sequence (Q16531 whole entry partner) above
T1 sequence (Q9H2S9 whole entry): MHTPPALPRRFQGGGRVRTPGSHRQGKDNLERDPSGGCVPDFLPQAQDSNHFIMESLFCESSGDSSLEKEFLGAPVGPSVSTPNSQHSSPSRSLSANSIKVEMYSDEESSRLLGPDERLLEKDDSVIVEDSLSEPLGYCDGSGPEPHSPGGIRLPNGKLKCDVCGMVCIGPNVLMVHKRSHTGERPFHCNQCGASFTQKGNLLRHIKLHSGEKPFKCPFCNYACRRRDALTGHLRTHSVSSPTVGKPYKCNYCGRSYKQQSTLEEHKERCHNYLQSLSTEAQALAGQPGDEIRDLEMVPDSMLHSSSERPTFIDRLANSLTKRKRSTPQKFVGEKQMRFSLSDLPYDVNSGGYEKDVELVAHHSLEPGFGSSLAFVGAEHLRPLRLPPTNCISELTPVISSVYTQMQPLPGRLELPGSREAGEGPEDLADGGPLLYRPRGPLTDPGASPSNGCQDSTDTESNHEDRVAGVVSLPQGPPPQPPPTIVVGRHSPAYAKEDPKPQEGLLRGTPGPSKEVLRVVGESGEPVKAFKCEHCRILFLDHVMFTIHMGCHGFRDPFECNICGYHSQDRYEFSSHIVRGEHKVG
T1 sequence (Q96SW2 whole entry): as the sequence (Q96SW2 whole entry) above
T1 sequence (Q16531 whole entry partner): as the sequence (Q16531 whole entry partner) above
Chain of IKZF1 Ikaros (Q13422 whole entry): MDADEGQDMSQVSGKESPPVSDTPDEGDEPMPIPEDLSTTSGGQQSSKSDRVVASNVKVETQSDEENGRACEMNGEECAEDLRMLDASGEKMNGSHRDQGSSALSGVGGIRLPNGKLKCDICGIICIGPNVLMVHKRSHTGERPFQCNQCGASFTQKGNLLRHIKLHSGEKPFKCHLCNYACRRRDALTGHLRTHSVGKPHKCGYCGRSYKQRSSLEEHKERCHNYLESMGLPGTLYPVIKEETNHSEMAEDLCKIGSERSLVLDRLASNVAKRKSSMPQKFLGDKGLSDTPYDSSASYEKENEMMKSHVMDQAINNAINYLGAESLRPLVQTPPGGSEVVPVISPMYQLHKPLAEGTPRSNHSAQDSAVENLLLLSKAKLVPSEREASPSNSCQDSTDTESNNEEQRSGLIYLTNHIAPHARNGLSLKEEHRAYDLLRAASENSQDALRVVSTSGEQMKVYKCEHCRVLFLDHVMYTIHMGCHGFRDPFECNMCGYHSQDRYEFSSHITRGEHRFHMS
Chain of IKZF1 Ikaros (Q96SW2 whole entry): as the sequence (Q96SW2 whole entry) above
Chain of IKZF1 Ikaros (Q16531 whole entry partner): as the sequence (Q16531 whole entry partner) above

SMILES	IKZF4 Eos max % deg. observed (IKZF4 Eos [1]) [%]	DC50 (IKZF4 Eos [1]) [nM]	IKZF1 Ikaros max % deg. observed (IKZF1 Ikaros) [%]	DC50 (IKZF1 Ikaros) [nM]	IKZF2 Helios max % deg. observed (IKZF2 Helios) [%]	DC50 (IKZF2 Helios) [nM]	DC50 (IKZF4 Eos [2]; CD4+CD127lowCD25+ Treg cells) [nM]	IKZF4*** Eos max % or deg. observed (IKZF4 Eos [2]) [%]	IKZF3 Aiolos max % deg. observed (IKZF3 Aiolos) [%]	DC50 (IKZF3 Aiolos) [nM]	IKZF4 Eos max % deg. observed (IKZF4 Eos [2]; CD4+CD127lowCD25+ Treg cells, 12-13 days with compound) [%]
Cc1cc(-c2ccc(-c3cn(C4CCC(=O)NC4=O)c(=O)o3)c(F)c2)nc(N)c1NCC1CCOCC1 (stereo not drawn) [Example 3, 3-(5-(4-(6-amino-4-methyl-5-(((tetrahydro-2H-pyran-4-yl)methyl)amino)pyridin-2-yl)-2-fluorophenyl)-2-oxooxazol-3(2H)-yl)piperidine-2,6-dione]	59	141	58	6470	73	247	4	84	25	> 10000	
CO[C@H]1C[C@H](Oc2c(C)cc(-c3ccc(-c4cn(C5CCC(=O)NC5=O)c(=O)o4)c(F)c3)nc2N)C1 (relative stereo) [Example 2, trans 3-(5-(4-(6-amino-5-(3-methoxycyclobutoxy)-4-methylpyridin-2-yl)-2-fluorophenyl)-2-oxooxazol-3(2H)-yl)piperidine-2,6-dione]	62	193	56	950	74	205	3	72	25	> 100000	
COC1CCN(Cc2ccc(-c3ccc(-c4cn(C5CCC(=O)NC5=O)c(=O)o4)c(F)c3)nc2N)CC1 (stereo not drawn) [Example 4, 3-(5-(4-(6-amino-5-((4-methoxypiperidin-1-yl)methyl)pyridin-2-yl)-2-fluorophenyl)-2-oxooxazol-3(2H)-yl)piperidine-2,6-dione]	62	203	67	3790	66	155	4	80	35	> 10000	
CC1(C)Cc2cc(-c3ccc(-c4cn(C5CCC(=O)NC5=O)c(=O)o4)c(F)c3)nc(N)c2O1 (stereo not drawn) [Example 1, 3-(5-(4-(7-amino-2,2-dimethyl-2,3-dihydrofuro[2,3-c]pyridin-5-yl)-2-fluorophenyl)-2-oxooxazol-3(2H)-yl)piperidine-2,6-dione]	56	55	51	8230	72	45	2	84	22	> 10000	
O=C1CCC(n2cc(-c3ccc(Br)cc3F)oc2=O)C(=O)N1 (stereo not drawn) [Comparative Compound B, 3-(5-(4-bromo-2-fluorophenyl)-2-oxooxazol-3(2H)-yl)piperidine-2,6-dione, reference compound]					6	> 1000	> 1000	11			
O=C1CCC(n2cc(-c3ccccc3)oc2=O)C(=O)N1 (stereo not drawn) [Comparative Compound A, 3-(2-oxo-5-phenyloxazol-3(2H)-yl)piperidine-2,6-dione, reference compound]					1	> 1000	> 1000	0			
Cc1cc(-c2ccc(-c3cn(C4CCC(=O)NC4=O)c(=O)o3)c(F)c2)nc(N)c1COC1CCOCC1 (stereo not drawn) [Example 5, 3-(5-(4-(6-Amino-4-methyl-5-(((tetrahydro-2H-pyran-4-yl)oxy)methyl)pyridin-2-yl)-2-fluorophenyl)-2-oxooxazol-3(2H)-yl)piperidine-2,6-dione]	67	575	52	6500			7	46	29	> 10000	46
